Experimental data as given in patent publication US20080108600A1, “Polycyclic Pyridines as Potassium Ion Channel Modulators” (Icagen, Inc., priority 2004, published 2008).
Several values for one entry are separate records, joined by “and”; a condition that tells them apart may be missing. Identical values can stand only once. Counter-ions that a name gives are not always drawn.

target: hSK2 (Homo sapiens, UniProt Q9H2S1); assay: 86Rb+ efflux assay for compound activity towards hSK channels; format: cell-based; settings: 86Rb+ efflux stimulated with calcium ionophore; drug 0.01 to 30 μM; read-out: hSK2 Inhibitory Activity
Protocol: 24.1 Assay for Compound Activity Towards hSK Channels
Cells expressing small conductance, calcium activated potassium channels, such as SK-like channels were loaded with ^86Rb^+ by culture in media containing ^86RbCl. Following loading, the culture media was removed and the cells were washed in EBSS to remove residual traces of ^86Rb^+. Cells were preincubated with the drug (0.01 to 30 μM in EBSS) and then ^86Rb^+ efflux was stimulated by exposing cells to EBSS solution supplemented with a calcium ionophore, such as ionomycin, in the continued presence of the drug. After a suitable efflux period, the EBSS/ionophore solution was removed from the cells and the ^86Rb^+ content was determined by Cherenkov counting (Wallac Trilux). Cells were then lysed with a SDS solution and the ^86Rb^+ content of the lysate was determined. Percent ^86Rb^+ efflux was calculated according to the following equation:
(^86Rb^+ content in EBSS/(86Rb^+ content in EBSS+^86Rb^+ content of the lysate))×100

Q: How did the IC50 turn out when `CC(C)(C)c1ccc(Nc2cccc(-c3nccs3)n2)nc1` [(5-tert-Butyl-pyridin-2-yl)-(6-thiazol-2-yl-pyridin-2-yl)-amine] was run?
A: Its IC50 is 100 to 500 nM.

Q: How did the IC50 turn out when `COc1ccc(-c2nccs2)nc1Nc1ccc(C(C)C)cn1` [(5-Isopropyl-pyridin-2-yl)-(3-methoxy-6-thiazol-2-yl-pyridin-2-yl)-amine] was run?
A: Its IC50 is < 100 nM and 100 to 500 nM.

Q: With `Cc1cnc(-c2cccc(Nc3ccccn3)n2)s1` [[6-(5-Methyl-thiazol-2-yl)-pyridin-2-yl]-pyridin-2-yl-amine] as the compound, how does the IC50 read?
A: Its IC50 is under 100 nM.

Q: With `c1cc(Nc2ccc(-c3ccco3)cn2)nc(-c2cnccn2)c1` [(5-Furan-2-yl-pyridin-2-yl)-(6-pyrazin-2-yl-pyridin-2-yl)-amine] as the compound, how does the IC50 read?
A: Its IC50 is under 100 nM.

Q: `Cc1ccc(-c2ccc(Nc3cccc(-c4nccs4)n3)nc2)o1` [[5-(5-Methyl-furan-2-yl)-pyridin-2-yl]-(6-thiazol-2-yl-pyridin-2-yl)-amine] was tested. Which IC50 did it give?
A: The IC50 was under 100 nM.

Q: For `COc1ccc(-c2nccs2)nc1Nc1ccccn1` [(3-Methoxy-6-thiazol-2-yl-pyridin-2-yl)-pyridin-2-yl-amine], which IC50 is on record?
A: Its IC50 is under 100 nM.

Q: Which IC50 does the source give for `CN1CCN(c2ccc(Nc3cccc(-n4cccn4)n3)nc2)CC1` [[5-(4-Methyl-piperazin-1-yl)-pyridin-2-yl]-(6-pyrazol-1-yl-pyridin-2-yl)-amine] here?
A: The IC50 was 500 to 1000 nM.

Q: Which IC50 does the source give for `Cc1cnn(-c2cccc(Nc3ccc(N4CCC(C)CC4)cn3)n2)c1` [[6-(4-Methyl-pyrazol-1-yl)-pyridin-2-yl]-(4-methyl-3,4,5,6-tetrahydro-2H-[1,3′]bipyridinyl-6′-yl)-amine] here?
A: Its IC50 is 100 to 500 nM.

Q: `COc1ccc(-c2cnccn2)nc1Nc1ccc(N2CCCCC2)cn1` [(3-Methoxy-6-pyrazin-2-yl-pyridin-2-yl)-(3,4,5,6-tetrahydro-2H-[1,3′]bipyridinyl-6′-yl)-amine] was tested. Which IC50 did it give?
A: The IC50 was under 100 nM.

Q: Which IC50 does the source give for `c1cc(Nc2cc3ccccc3cn2)nc(-c2nccs2)c1` [Isoquinolin-3-yl-(6-thiazol-2-yl-pyridin-2-yl)-amine] here?
A: The IC50 was under 100 nM.

Q: `COc1ccc(Nc2cccc(-n3cc(C)cn3)n2)nc1` [(5-Methoxy-pyridin-2-yl)-[6-(4-methyl-pyrazol-1-yl)-pyridin-2-yl]-amine] was tested. Which IC50 did it give?
A: Its IC50 is under 100 nM.

Q: How did the IC50 turn out when `COCCN(C)c1ccc(Nc2nc(-c3ncc(Cl)s3)ccc2OC)nc1` [N^2-[6-(5-Chloro-thiazol-2-yl)-3-methoxy-pyridin-2-yl]-N^5-(2-methoxy-ethyl)-N^5-methyl-pyridine-2,5-diamine] was run?
A: Its IC50 is under 100 nM.

Q: With `c1cncc(-c2ccc(Nc3cccc(-c4cnccn4)n3)nc2)c1` [[3,3′]Bipyridinyl-6-yl-(6-pyrazin-2-yl-pyridin-2-yl)-amine] as the compound, how does the IC50 read?
A: The IC50 was under 100 nM.

Q: Which IC50 does the source give for `Clc1cnc(-c2cccc(Nc3ccc(N4CCOCC4)cn3)n2)s1` [[6-(5-Chloro-thiazol-2-yl)-pyridin-2-yl]-(5-morpholin-4-yl-pyridin-2-yl)-amine] here?
A: Its IC50 is under 100 nM.

Q: Which IC50 does the source give for `C=C(C)c1ccc(Nc2cccc(-n3cc(C)cn3)n2)nc1` [(5-Isopropenyl-pyridin-2-yl)-[6-(4-methyl-pyrazol-1-yl)-pyridin-2-yl]-amine] here?
A: The IC50 was under 100 nM.

Q: With `COc1ccc(-c2cnccn2)nc1Nc1ccc(N2CCN(C)CC2)cn1` [(3-Methoxy-6-pyrazin-2-yl-pyridin-2-yl)-[5-(4-methyl-piperazin-1-yl)-pyridin-2-yl]-amine] as the compound, how does the IC50 read?
A: The IC50 was under 100 nM.

Q: Which IC50 does the source give for `COc1ccc(-c2cnccn2)nc1Nc1ccc(C(C)C)cn1` [(5-Isopropyl-pyridin-2-yl)-(3-methoxy-6-pyrazin-2-yl-pyridin-2-yl)-amine] here?
A: The IC50 was 100 to 500 nM.

Q: `Cc1ccc(-c2cccc(-c3nc4ccc(Cl)cc4[nH]3)n2)nc1` [6′-(6-Chloro-1H-benzoimidazol-2-yl)-5-methyl-[2,2′]bipyridinyl] was tested. Which IC50 did it give?
A: Its IC50 is 100 to 500 nM.

Q: For `COCCN(C)c1ccc(Nc2cccc(-c3ncc(Cl)s3)n2)nc1` [N^2-[6-(5-Chloro-thiazol-2-yl)-pyridin-2-yl]-N^5-(2-methoxy-ethyl)-N^5-methyl-pyridine-2,5-diamine], which IC50 is on record?
A: The IC50 was under 100 nM.

Q: For `COc1ccc(-c2ccccn2)nc1Nc1ccc(N2CCN(C)CC2)cn1` [(5-Methoxy-[2,2′]bipyridinyl-6-yl)-[5-(4-methyl-piperazin-1-yl)-pyridin-2-yl]-amine], which IC50 is on record?
A: Its IC50 is under 100 nM.

Q: With `CCc1cnc(-c2cccc(Nc3ccccn3)n2)s1` [[6-(5-Ethyl-thiazol-2-yl)-pyridin-2-yl]-pyridin-2-yl-amine] as the compound, how does the IC50 read?
A: The IC50 was under 100 nM.

Q: How did the IC50 turn out when `c1ccc(-c2cc(Nc3cccc(-c4nccs4)n3)[nH]n2)cc1` [(5-Phenyl-2H-pyrazol-3-yl)-(6-thiazol-2-yl-pyridin-2-yl)-amine] was run?
A: Its IC50 is under 100 nM.

Q: How did the IC50 turn out when `Brc1ccc(Nc2cccc(-c3nccs3)n2)nc1` [(5-Bromo-pyridin-2-yl)-(6-thiazol-2-yl-pyridin-2-yl)-amine] was run?
A: The IC50 was under 100 nM.

Q: `c1cc(Nc2ccc(CN3CCc4ccccc4C3)cn2)nc(-c2nccs2)c1` [[5-(3,4-Dihydro-1H-isoquinolin-2-ylmethyl)-pyridin-2-yl]-(6-thiazol-2-yl-pyridin-2-yl)-amine] was tested. Which IC50 did it give?
A: The IC50 was under 100 nM.

Q: `CCOC(=O)CCc1ccc(Nc2cccc(-c3nccs3)n2)nc1` [3-[6-(6-Thiazol-2-yl-pyridin-2-ylamino)-pyridin-3-yl]-propionic acid ethyl ester] was tested. Which IC50 did it give?
A: Its IC50 is under 100 nM.

Q: For `Cc1cnn(-c2cccc(Nc3ccc(F)cn3)n2)c1` [(5-Fluoro-pyridin-2-yl)-[6-(4-methyl-pyrazol-1-yl)-pyridin-2-yl]-amine], which IC50 is on record?
A: Its IC50 is under 100 nM.

Q: How did the IC50 turn out when `COc1ccc(-c2nccs2)nc1Nc1ccc(NC2CN3CCC2CC3)cn1` (centres unmarked) [N^5-(1-Aza-bicyclo[2.2.2]oct-3-yl)-N^2-(3-methoxy-6-thiazol-2-yl-pyridin-2-yl)-pyridine-2,5-diamine] was run?
A: Its IC50 is 100 to 500 nM.

Q: `COc1ccc(-c2nccs2)nc1Nc1ccc(-c2ccccc2)cn1` [(3-Methoxy-6-thiazol-2-yl-pyridin-2-yl)-(5-phenyl-pyridin-2-yl)-amine] was tested. Which IC50 did it give?
A: Its IC50 is 100 to 500 nM.

Q: Which IC50 does the source give for `COc1ccc(-c2ccccn2)nc1Nc1ccc(C(C)C)cn1` [(5-Isopropyl-pyridin-2-yl)-(5-methoxy-[2,2′]bipyridinyl-6-yl)-amine] here?
A: Its IC50 is under 100 nM.

Q: How did the IC50 turn out when `COc1ccc(-c2nccs2)nc1Nc1ccc(N(C)C2CCN(C)C2)cn1` (centres unmarked) [N^2-(3-Methoxy-6-thiazol-2-yl-pyridin-2-yl)-N^5-methyl-N^5-(1-methyl-pyrrolidin-3-yl)-pyridine-2,5-diamine] was run?
A: Its IC50 is 100 to 500 nM.

Q: Which IC50 does the source give for `COc1ccc(-c2ncc(Cl)s2)nc1Nc1ccc(N2CCCC2=O)cn1` [1-{6-[6-(5-Chloro-thiazol-2-yl)-3-methoxy-pyridin-2-ylamino]-pyridin-3-yl}-pyrrolidin-2-one] here?
A: Its IC50 is under 100 nM.

Q: Which IC50 does the source give for `COc1ccc(-c2nccs2)nc1Nc1ccc(N2CCCN(C)CC2)cn1` [(3-Methoxy-6-thiazol-2-yl-pyridin-2-yl)-[5-(4-methyl-[1,4]diazepan-1-yl)-pyridin-2-yl]-amine] here?
A: Its IC50 is 100 to 500 nM.

Q: Which IC50 does the source give for `COc1ccccc1-c1ccc(Nc2cccc(-n3cc(C)cn3)n2)nc1` [[5-(2-Methoxy-phenyl)-pyridin-2-yl]-[6-(4-methyl-pyrazol-1-yl)-pyridin-2-yl]-amine] here?
A: Its IC50 is under 100 nM.

Q: For `CC(C)c1cnc(-c2cccc(Nc3ccccn3)n2)s1` [[6-(5-Isopropyl-thiazol-2-yl)-pyridin-2-yl]-pyridin-2-yl-amine], which IC50 is on record?
A: Its IC50 is under 100 nM.

Q: Which IC50 does the source give for `CCc1cnc(-c2cccc(Nc3ccc(N4CCCCC4=O)cn3)n2)s1` [6′-[6-(5-Ethyl-thiazol-2-yl)-pyridin-2-ylamino]-3,4,5,6-tetrahydro-[1,3′]bipyridinyl-2-one] here?
A: Its IC50 is 100 to 500 nM.

Q: `COC(=O)c1ccc(Nc2cccc(-n3cccn3)n2)nc1` [6-(6-Pyrazol-1-yl-pyridin-2-ylamino)-nicotinic acid methyl ester] was tested. Which IC50 did it give?
A: Its IC50 is 100 to 500 nM.

Q: How did the IC50 turn out when `Clc1cnc(-c2cccc(Nc3ccccn3)n2)s1` [[6-(5-Chloro-thiazol-2-yl)-pyridin-2-yl]-pyridin-2-yl-amine] was run?
A: The IC50 was under 100 nM.

Q: Which IC50 does the source give for `COc1ccc(-c2ncc(Cl)s2)nc1Nc1ccc(N2CCCCC2)cn1` [[6-(5-Chloro-thiazol-2-yl)-3-methoxy-pyridin-2-yl]-(3,4,5,6-tetrahydro-2H-[1,3′]bipyridinyl-6′-yl)-amine] here?
A: Its IC50 is 100 to 500 nM.

Q: How did the IC50 turn out when `Cc1cnn(-c2cccc(Nc3ccc(C(C)C)cn3)n2)c1` [(5-Isopropyl-pyridin-2-yl)-[6-(4-methyl-pyrazol-1-yl)-pyridin-2-yl]-amine] was run?
A: The IC50 was under 100 nM.

Q: With `CCc1ccc(Nc2cccc(-c3nccs3)n2)nc1` [(5-Ethyl-pyridin-2-yl)-(6-thiazol-2-yl-pyridin-2-yl)-amine] as the compound, how does the IC50 read?
A: The IC50 was under 100 nM.

Q: Which IC50 does the source give for `COc1ccc(-c2ncc(Cl)s2)nc1Nc1ccc(N2CCOCC2)cn1` [[6-(5-Chloro-thiazol-2-yl)-3-methoxy-pyridin-2-yl]-(5-morpholin-4-yl-pyridin-2-yl)-amine] here?
A: Its IC50 is under 100 nM.

Q: For `COc1ccc(-c2ncc(Cl)s2)nc1Nc1ccc(N2CCC(OC)CC2)cn1` [[6-(5-Chloro-thiazol-2-yl)-3-methoxy-pyridin-2-yl]-(4-methoxy-3,4,5,6-tetrahydro-2H-[1,3′]bipyridinyl-6′-yl)-amine], which IC50 is on record?
A: Its IC50 is under 100 nM.

Q: `c1ccc(CNCc2ccc(Nc3cccc(-c4nccs4)n3)nc2)cc1` [5-[(Benzylamino)methyl]-N-[6-(1,3-thiazol-2-yl)pyridin-2-yl]pyridin-2-amine dihydrochloride] was tested. Which IC50 did it give?
A: The IC50 was 100 to 500 nM.

Q: `COc1ccc(-c2ncc(Cl)s2)nc1Nc1ccccn1` [[6-(5-Chloro-thiazol-2-yl)-3-methoxy-pyridin-2-yl]-pyridin-2-yl-amine] was tested. Which IC50 did it give?
A: The IC50 was under 100 nM.

Q: `O=C1CCCCN1c1ccc(Nc2cccc(-n3cccn3)n2)nc1` [6′-(6-Pyrazol-1-yl-pyridin-2-ylamino)-3,4,5,6-tetrahydro-[1,3′]bipyridinyl-2-one] was tested. Which IC50 did it give?
A: The IC50 was under 100 nM.

Q: How did the IC50 turn out when `Brc1ccc(Nc2cccc(-n3cccn3)n2)nc1` [(5-Bromo-pyridin-2-yl)-(6-pyrazol-1-yl-pyridin-2-yl)-amine] was run?
A: Its IC50 is under 100 nM.

Q: With `Cc1cnc(-c2cccc(Nc3ccc(N4CCCCC4)cn3)n2)s1` [[6-(5-Methyl-thiazol-2-yl)-pyridin-2-yl]-(3,4,5,6-tetrahydro-2H-[1,3′]bipyridinyl-6′-yl)-amine] as the compound, how does the IC50 read?
A: Its IC50 is 100 to 500 nM.
